Results taken from patent US11318090B1, “In situ gelling composition as a pH-selective and mucoadhesive sustained release drug delivery system” (King Abdulaziz University, priority 2021, dated 2022).

Test: pH-profile drug release in dialysis bag, consecutive simulated gastrointestinal media
Format: physicochemical
Procedure: Rv (Sigma-Aldrich, USA) stock solution of 15 μg/mL was prepared in distilled water. Using UV spectrophotometric analysis (Shimadzu-UV-Vis Spectrophotometers, Japan), the analysis was conducted at a wavelength of 306 nm in a 1 cm cell compared to a blank solution of distilled water. To construct a calibration curve, dilutions had been prepared (FIG. 1). The ? -max selection was based on the UV-scanning from 200-400 nm of pure Rv solution. The formulations' drug-content assays for drug encapsulation efficiency were accomplished by dissolving the formulation in ethanol and centrifuging it for 30 minutes at 1500 rpm. After that, an accurate volume of the supernatant transparent layer had been measured for UV-absorbance at 306 nm for Rv content. This ? -max was unique for Rv only (Zhang Lingtuo et al. 2019).
The formulations in Table 1 containing 500 mg of the Rv were each encountered in the dialysis bag (14000 Daltons cut off, Sigma-Aldrich, USA). The dry weights of the formulations were reconstituted with distilled water before enclosing them inside the dialysis bag. The release media volume was 300 mL. The drug-release experiment was designed to simulate the gastrointestinal-pH and transit time after oral ingestion. As a result, the dialysis membranes' surrounding media simulated gastric media (0.1N HCl-pH 1.2), proximal intestine simulated media (phosphate buffer-pH 6.5), the distal area of the small intestine (phosphate buffer-pH 6.8), and phosphate buffer media-pH 7.4 of descending colon simulated media, consecutively. The transit time for each simulated media was two hrs (Amidon et al. 2015; Maurer et al. 2015; Bani-Jaber and Abdullah 2020). The dialysis membranes were subjected to 37±0.5° C. in a water bath shaker of 75 rpm speed. Total release media replacement was made after each hour of dissolution to simulate body sink conditions. This experiment was conducted to optimize the formulation depending on SR behavior and drug encapsulation efficiency. The optimum formula was subjected to aging, gel swelling studies, nanoparticle, and formulation's physiochemical characterizations.

- Gastric % Release (0.1N HCl pH 1.2, 2 hrs, 37°C, 500 mg Rv, freshly prepared): 16.83%
- average total pH-profile release after 8 hrs (pH 1.2, 6.5, 6.8, 7.4, 2 hrs each): 50.89%
- Intestinal-Colonic % Release (pH 6.5, 6.8 and 7.4 media together (6 hrs), freshly prepared): 34.06%
- Proximal Intestine % Release (phosphate buffer pH 6.5, 2 hrs, freshly prepared): 11.49%
- Distal Intestine % Release (phosphate buffer pH 6.8, 2 hrs, freshly prepared): 12.74%
- Colon % Release (phosphate buffer pH 7.4, 2 hrs, freshly prepared): 9.83%
Substance: 3,5,4-trihydroxytrans-stilbene [Rv]
